{"source": "paper PMC9851200", "about": "“Multiparameter phenotypic screening for endogenous TFEB and TFE3 translocation identifies novel chemical series modulating lysosome function” (Autophagy, 2022)", "origin": "cited, not measured here", "set-up_in_all_cases": "method as in original PKIS2 published data", "key": {"[1]": {"target": "T1, kinases (KINOMEscan panel) (Homo sapiens, UniProt Q13873)", "T1 sequence (Q13873 27-1038)": "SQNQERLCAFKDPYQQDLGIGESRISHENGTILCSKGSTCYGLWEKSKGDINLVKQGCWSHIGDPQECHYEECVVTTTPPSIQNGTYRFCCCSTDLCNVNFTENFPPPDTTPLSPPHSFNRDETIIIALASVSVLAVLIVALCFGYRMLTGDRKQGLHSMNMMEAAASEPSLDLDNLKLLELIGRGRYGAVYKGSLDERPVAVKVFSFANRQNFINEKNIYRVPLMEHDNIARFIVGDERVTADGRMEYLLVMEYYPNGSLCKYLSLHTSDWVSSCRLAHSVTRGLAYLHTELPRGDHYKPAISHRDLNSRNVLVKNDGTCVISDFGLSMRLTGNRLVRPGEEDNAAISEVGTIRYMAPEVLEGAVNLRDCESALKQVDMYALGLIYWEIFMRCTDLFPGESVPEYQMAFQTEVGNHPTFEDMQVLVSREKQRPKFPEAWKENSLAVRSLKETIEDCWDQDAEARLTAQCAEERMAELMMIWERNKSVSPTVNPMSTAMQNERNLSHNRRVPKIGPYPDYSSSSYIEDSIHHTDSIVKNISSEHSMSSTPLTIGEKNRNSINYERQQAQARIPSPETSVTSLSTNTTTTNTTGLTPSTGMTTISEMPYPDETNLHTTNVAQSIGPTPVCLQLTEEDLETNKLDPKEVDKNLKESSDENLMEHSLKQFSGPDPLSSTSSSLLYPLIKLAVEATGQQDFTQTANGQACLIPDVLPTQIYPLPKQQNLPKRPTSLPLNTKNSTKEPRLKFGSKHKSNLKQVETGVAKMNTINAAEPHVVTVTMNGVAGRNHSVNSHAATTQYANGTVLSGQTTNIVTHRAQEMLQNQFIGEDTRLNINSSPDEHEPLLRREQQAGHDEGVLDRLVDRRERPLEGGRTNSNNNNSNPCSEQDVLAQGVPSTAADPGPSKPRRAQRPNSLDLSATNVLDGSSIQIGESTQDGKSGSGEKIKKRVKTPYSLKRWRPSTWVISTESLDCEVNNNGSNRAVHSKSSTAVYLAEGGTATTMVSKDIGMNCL", "conditions": "kinase BMPR2; Published KINOMEscan; ref original PKIS2 published data; cited from earlier work"}, "[2]": {"target": "T2, kinases (KINOMEscan panel) (Homo sapiens, UniProt P21709)", "T2 sequence (P21709 26-976)": "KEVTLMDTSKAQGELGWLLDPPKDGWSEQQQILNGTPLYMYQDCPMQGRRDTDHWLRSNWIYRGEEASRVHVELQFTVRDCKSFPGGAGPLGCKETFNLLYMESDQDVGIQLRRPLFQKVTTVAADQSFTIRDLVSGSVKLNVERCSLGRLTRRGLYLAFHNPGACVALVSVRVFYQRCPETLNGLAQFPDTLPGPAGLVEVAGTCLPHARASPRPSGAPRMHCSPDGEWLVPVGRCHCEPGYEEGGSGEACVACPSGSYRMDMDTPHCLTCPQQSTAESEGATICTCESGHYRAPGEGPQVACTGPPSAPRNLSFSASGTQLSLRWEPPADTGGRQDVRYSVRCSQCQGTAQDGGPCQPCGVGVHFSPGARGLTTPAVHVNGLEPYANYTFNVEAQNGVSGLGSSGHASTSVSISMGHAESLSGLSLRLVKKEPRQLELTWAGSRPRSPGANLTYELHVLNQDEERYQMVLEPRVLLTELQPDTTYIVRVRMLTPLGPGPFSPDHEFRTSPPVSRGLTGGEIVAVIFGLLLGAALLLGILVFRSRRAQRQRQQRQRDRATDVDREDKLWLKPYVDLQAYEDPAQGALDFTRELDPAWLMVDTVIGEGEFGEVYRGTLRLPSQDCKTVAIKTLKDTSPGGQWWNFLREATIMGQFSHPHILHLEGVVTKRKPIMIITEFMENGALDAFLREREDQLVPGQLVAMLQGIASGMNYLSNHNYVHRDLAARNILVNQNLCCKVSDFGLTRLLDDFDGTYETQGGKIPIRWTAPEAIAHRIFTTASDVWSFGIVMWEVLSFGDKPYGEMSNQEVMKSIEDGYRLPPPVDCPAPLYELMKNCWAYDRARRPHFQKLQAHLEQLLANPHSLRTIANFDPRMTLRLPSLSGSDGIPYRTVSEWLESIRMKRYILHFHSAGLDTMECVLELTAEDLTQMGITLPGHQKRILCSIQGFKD", "conditions": "EPHA1; Published KINOMEscan; ref original PKIS2 published data; cited from earlier work"}, "[3]": {"target": "kinases (KINOMEscan panel) (Homo sapiens, UniProt Q9HCP0)", "sequence (Q9HCP0 whole entry)": "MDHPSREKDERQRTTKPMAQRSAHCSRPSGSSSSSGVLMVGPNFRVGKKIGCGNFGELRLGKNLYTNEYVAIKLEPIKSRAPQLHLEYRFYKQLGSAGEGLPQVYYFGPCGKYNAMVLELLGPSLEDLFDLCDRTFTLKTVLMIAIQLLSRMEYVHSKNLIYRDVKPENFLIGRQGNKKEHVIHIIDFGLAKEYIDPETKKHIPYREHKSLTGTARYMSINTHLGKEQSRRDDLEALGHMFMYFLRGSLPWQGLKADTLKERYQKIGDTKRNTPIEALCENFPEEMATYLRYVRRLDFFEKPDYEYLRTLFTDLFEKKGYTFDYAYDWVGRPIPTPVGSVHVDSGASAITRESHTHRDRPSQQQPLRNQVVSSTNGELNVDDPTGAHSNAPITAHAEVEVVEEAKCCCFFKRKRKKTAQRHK", "conditions": "kinase CSNK1G1; Published KINOMEscan; ref original PKIS2 published data; cited from earlier work"}, "[4]": {"target": "kinases (KINOMEscan panel) (Homo sapiens, UniProt Q9Y463)", "sequence (Q9Y463 whole entry)": "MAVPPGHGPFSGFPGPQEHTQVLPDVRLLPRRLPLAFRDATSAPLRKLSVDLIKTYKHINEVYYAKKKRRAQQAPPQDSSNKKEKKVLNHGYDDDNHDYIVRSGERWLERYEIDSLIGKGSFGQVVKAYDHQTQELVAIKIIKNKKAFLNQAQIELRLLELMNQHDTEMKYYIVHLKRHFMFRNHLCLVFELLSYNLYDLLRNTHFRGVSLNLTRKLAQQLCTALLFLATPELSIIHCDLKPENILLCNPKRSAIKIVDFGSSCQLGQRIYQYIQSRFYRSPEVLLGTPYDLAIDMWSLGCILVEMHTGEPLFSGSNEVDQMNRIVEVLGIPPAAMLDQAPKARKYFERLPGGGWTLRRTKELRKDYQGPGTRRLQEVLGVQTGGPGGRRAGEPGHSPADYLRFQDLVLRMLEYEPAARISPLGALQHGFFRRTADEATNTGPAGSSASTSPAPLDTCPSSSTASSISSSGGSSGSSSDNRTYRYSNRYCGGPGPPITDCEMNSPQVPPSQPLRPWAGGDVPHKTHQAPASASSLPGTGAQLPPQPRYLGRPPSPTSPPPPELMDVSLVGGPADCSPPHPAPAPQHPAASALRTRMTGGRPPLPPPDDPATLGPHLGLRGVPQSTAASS", "conditions": "kinase DYRK1B; Published KINOMEscan; ref original PKIS2 published data; cited from earlier work"}, "[5]": {"target": "kinases (KINOMEscan panel) (Homo sapiens, UniProt Q9UQM7)", "sequence (Q9UQM7 whole entry)": "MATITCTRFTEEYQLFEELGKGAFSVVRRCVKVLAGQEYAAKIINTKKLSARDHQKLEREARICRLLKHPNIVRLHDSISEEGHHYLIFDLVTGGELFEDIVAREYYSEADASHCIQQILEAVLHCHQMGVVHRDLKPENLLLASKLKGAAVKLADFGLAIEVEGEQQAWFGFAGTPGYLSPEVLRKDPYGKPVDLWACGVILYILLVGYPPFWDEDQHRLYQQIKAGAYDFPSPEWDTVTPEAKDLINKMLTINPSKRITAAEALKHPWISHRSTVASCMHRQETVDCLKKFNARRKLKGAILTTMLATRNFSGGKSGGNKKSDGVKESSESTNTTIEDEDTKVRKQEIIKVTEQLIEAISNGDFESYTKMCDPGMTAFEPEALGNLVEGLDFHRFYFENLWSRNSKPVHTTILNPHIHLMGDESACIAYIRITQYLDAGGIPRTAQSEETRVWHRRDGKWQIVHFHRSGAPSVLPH", "conditions": "kinase CAMK2A; Published KINOMEscan; ref original PKIS2 published data; cited from earlier work"}, "[6]": {"target": "kinases (KINOMEscan panel) (Homo sapiens, UniProt Q16816)", "sequence (Q16816 whole entry)": "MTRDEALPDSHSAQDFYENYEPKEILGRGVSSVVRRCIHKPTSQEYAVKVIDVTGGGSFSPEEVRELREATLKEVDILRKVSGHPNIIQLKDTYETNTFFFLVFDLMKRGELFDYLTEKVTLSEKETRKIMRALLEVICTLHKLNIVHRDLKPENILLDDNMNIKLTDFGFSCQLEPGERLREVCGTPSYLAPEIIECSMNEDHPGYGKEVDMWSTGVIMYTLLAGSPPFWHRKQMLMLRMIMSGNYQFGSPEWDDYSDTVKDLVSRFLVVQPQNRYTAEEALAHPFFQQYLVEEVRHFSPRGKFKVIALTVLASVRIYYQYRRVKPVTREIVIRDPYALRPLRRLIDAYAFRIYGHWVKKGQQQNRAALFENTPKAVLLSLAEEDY", "conditions": "PHKG1; Published KINOMEscan; ref original PKIS2 published data; cited from earlier work"}, "[7]": {"target": "T3, kinases (KINOMEscan panel) (Homo sapiens, UniProt Q8TBX8)", "T3 sequence (Q8TBX8 1-421)": "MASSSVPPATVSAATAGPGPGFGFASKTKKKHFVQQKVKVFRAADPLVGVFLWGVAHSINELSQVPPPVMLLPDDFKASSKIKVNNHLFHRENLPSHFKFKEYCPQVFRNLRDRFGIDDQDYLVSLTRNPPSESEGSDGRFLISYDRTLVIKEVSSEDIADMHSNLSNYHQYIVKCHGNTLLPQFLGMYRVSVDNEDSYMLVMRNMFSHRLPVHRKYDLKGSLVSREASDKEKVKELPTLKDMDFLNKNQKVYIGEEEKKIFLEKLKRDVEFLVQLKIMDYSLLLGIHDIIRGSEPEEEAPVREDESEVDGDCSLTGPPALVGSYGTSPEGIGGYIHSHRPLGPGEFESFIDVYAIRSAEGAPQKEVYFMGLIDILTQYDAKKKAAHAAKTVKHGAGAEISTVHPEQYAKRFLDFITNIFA", "conditions": "PIP4K2C; Published KINOMEscan; ref original PKIS2 published data; cited from earlier work"}}, "data": [{"compound": "Cc1cccc(-c2nc(Nc3ccncc3)c3ccccc3n2)n1", "note": "[NK215]", "values": [{"measurement": "KINOMEscan BMPR2", "setting": "[1]", "result": 0}, {"measurement": "KINOMEscan EPHA1", "setting": "[2]", "result": 23}, {"measurement": "KINOMEscan CSNK1G1", "setting": "[3]", "result": 0}, {"measurement": "KINOMEscan DYRK1B", "setting": "[4]", "result": 27}, {"measurement": "KINOMEscan CAMK2A", "setting": "[5]", "result": 6}, {"measurement": "KINOMEscan PHKG1", "setting": "[6]", "result": 47}, {"measurement": "KINOMEscan PIP4K2C", "setting": "[7]", "result": 18}]}]}
